Test results: paper PMC2764525 (Biochemistry, 2009)
Values joined by “and” are separate entries in the source; they are usually repeats but may differ in a detail not shown here. Equal entries are not always repeated. Where two headings read alike, the source gives them in different places.

Tests used:
nikD Asp276Asn [1] = target: T1, nikD Asp276Asn (Streptomyces tendae, UniProt Q9X9P9, D276N); assay: biochemical; type: binding
nikD Glu101Gln [2] = target: T2, nikD Glu101Gln (Streptomyces tendae, UniProt Q9X9P9, E101Q); assay: biochemical
nikD Glu101Gln [3] = target: T2, nikD Glu101Gln; conditions: pH 8
wild-type nikD [4] = conditions: cited from earlier work
wild-type nikD [5] = conditions: spectral titration, 100 mM potassium phosphate buffer, pH 8.0, 25 °C; cited from earlier work
nikD Glu101Gln [6] = target: T2, nikD Glu101Gln; assay: biochemical; type: binding
wild-type nikD [7] = conditions: pH 8.0, 25 °C, cited from earlier work
wild-type nikD [8] = conditions: saturating P2C and oxygen, pH 8.0, 25 °C; cited from earlier work
nikD Glu101Gln [9] = target: T2, nikD Glu101Gln; assay: Anaerobic reductive half-reaction with P2C; type: biochemical
nikD Glu101Gln [10] = target: T2, nikD Glu101Gln; assay: Steady-state turnover with P2C and oxygen; type: biochemical
nikD Asp276Asn [11] = target: T1, nikD Asp276Asn; assay: Steady-state turnover with P2C and oxygen; type: biochemical
nikD Asp276Asn [12] = target: T1, nikD Asp276Asn; assay: Anaerobic reductive half-reaction with P2C; type: biochemical
[13] = ionization at the N(3)H position in free FAD; cited from earlier work
[14] = one-step binding, pH 8.0, 25 °C
[15] = apparent second-order rate constant from stopped-flow data, pH 8.0, 25 °C
[16] = limiting rate of fast phase at saturating P2C, pH 8.0, 25 °C
[17] = very fast phase preceding fast phase, pH 8.0, 25 °C
[18] = saturating concentrations of P2C and oxygen

## O=C(O)c1ccccn1 [picolinate]
nikD Asp276Asn [1]
  Kd: 420 ± 20 µM
nikD Glu101Gln [2]
  Kd: 180 ± 30 µM
nikD Glu101Gln [3]
  k3: 192 ± 9 s⁻¹
  k4: 27 ± 1 s⁻¹
wild-type nikD [4]; [14]
  k1: 2.83 ± 0.04 × 10^4 M^-1 s^-1
  k2: 8.0 ± 0.7 s⁻¹
wild-type nikD [4]; read-out: Kd macroscopic (calc), calculated, equals k2/k1, pH 8.0, 25 °C
  Kd: 280 ± 30 µM
wild-type nikD [5]
  Kd: 290 ± 40 µM
nikD Glu101Gln [6]
  Kd: 151 ± 2 µM

## O=C(O)C1=NCCCC1 [P2C, piperideine-2-carboxylate]
wild-type nikD [7]; limiting rate of fast phase at saturating P2C
  klim: 53 ± 1 s⁻¹
wild-type nikD [7]
  klim/Kd app: 2.0 ± 0.2 × 10^5 M^-1 s^-1
wild-type nikD [7]; read-out: Kd app, hyperbolic fit of fast phase
  Kd: 260 ± 20 µM
wild-type nikD [7]; slow phase, independent of P2C concentration
  kslow: 2.7 ± 0.1 s⁻¹
wild-type nikD [8]
  kcat: 2.3 ± 0.2 s⁻¹
nikD Glu101Gln [9]
  Kd: 1400 ± 200 µM
nikD Glu101Gln [9]; [15]
  klim/Kd app: 9 ± 1 × 10^3 M^-1 s^-1
nikD Glu101Gln [9]; [16]
  klim: 13.9 ± 0.9 s⁻¹
nikD Glu101Gln [9]; saturating P2C
  klim, fold faster than observed turnover rate (kcat): about 30 fold
  klim, fold slower than limiting rate with wild-type nikD: about 4 fold
nikD Glu101Gln [9]; [17]
  kvery fast, Y-intercept of linear dependence on P2C concentration: 10.1 ± 0.9 s⁻¹
  kvery fast, slope of linear dependence on P2C concentration: 8.8 ± 0.2 × 10^3 M^-1 s^-1
nikD Glu101Gln [10]; saturating P2C and oxygen, ping-pong mechanism fit, pH 8.0, 25 °C
  kcat: 0.50 ± 0.01 s⁻¹
nikD Glu101Gln [10]; [18]
  turnover rate, fold slower than wild-type nikD: about 5 fold
nikD Asp276Asn [11]
  Ki: 8 µM
nikD Asp276Asn [11]; saturating P2C and oxygen, sequential mechanism fit, pH 8.0, 25 °C
  kcat: 1.22 ± 0.04 s⁻¹
nikD Asp276Asn [11]; [18]
  turnover rate, fold slower than wild-type nikD: about 2 fold
nikD Asp276Asn [12]
  Kd: 110 ± 10 µM
nikD Asp276Asn [12]; [15]
  klim/Kd app: 1.01 ± 0.01 × 10^5 M^-1 s^-1 and 1.01 ± 0.09 × 10^5 M^-1 s^-1
nikD Asp276Asn [12]; [16]
  klim: 11.1 ± 0.2 s⁻¹
nikD Asp276Asn [12]; saturating P2C
  klim, fold faster than observed turnover rate (kcat): about 10 fold
  klim, fold slower than limiting rate with wild-type nikD: about 5 fold
nikD Asp276Asn [12]; slow phase, independent of P2C concentration, pH 8.0, 25 °C
  kslow: 3.0 ± 0.3 s⁻¹

## Cc1cc2nc3c(=O)[nH]c(=O)nc-3n(C[C@H](O)[C@H](O)[C@H](O)COP(=O)(O)OP(=O)(O)OC[C@H]3O[C@@H](n4cnc5c(N)ncnc54)[C@H](O)[C@@H]3O)c2cc1C [FAD, flavin adenine dinucleotide]
[13]
  pKa: 10.4

## C[Se]CC(=O)O [methylselenoacetate]
nikD Asp276Asn [1]
  Kd: 1000 ± 30 µM
wild-type nikD [5]
  Kd: 1070 ± 40 µM
nikD Glu101Gln [6]
  Kd: 112 ± 3 µM

## O=C(O)C1=CCCCC1 [1-cyclohexenoate]
nikD Asp276Asn [1]
  Kd: 6.5 ± 0.9 µM
wild-type nikD [5]
  Kd: 12.8 ± 0.9 µM
nikD Glu101Gln [6]
  Kd: 0.9 ± 0.1 µM
